Laboratory results published in PubChem BioAssay (NCI).
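All cell lines were grown in 96-well plates and treated with compound for 48 hours. GI50 marks 50% less growth. TGI marks complete inhibition of growth.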

How the values were obtained:
Assay in all cases: DTP human tumour cell line panel, 48 h
NCI-H23 lung = test system: NCI-H23 lung
SNB-19 CNS = test system: SNB-19 CNS
IGROV1 ovarian = test system: IGROV1 ovarian
NCI-H226 lung = test system: NCI-H226 lung
T-47D breast = test system: T-47D breast
SK-MEL-5 melanoma = test system: SK-MEL-5 melanoma
EKVX NSCLC = test system: EKVX NSCLC

SMILES | GI50 (NCI-H23 lung) | TGI (NCI-H23 lung) | GI50 (SNB-19 CNS) | TGI (SNB-19 CNS) | GI50 (IGROV1 ovarian) | TGI (IGROV1 ovarian) | GI50 (NCI-H226 lung) | TGI (NCI-H226 lung) | GI50 (T-47D breast) | TGI (T-47D breast) | GI50 (SK-MEL-5 melanoma) | TGI (SK-MEL-5 melanoma) | GI50 (EKVX NSCLC) | TGI (EKVX NSCLC)
CCCCCn1c(=N)n(CC(O)COc2cccc(C)c2)c2ccccc21 (stereo not given) | 6.87 µM | 22.5 µM | 12.3 µM | 26.4 µM | 4.45 µM | 18 µM | 10.3 µM | 28 µM | 3.33 µM | 10.6 µM | 2.75 µM | 7.82 µM | – | –
Cc1[c-]onc1C.Cc1[c-]onc1C.[Ag].[Ag].[NH-]S(=O)(=O)c1ccc(N=Nc2cc(N=Nc3ccc(S([NH-])(=O)=O)cc3)c3c(NC(=O)C(Cl)Cl)cccc3c2OC(=O)C(Cl)Cl)cc1 | 8.3 µM | 22.8 µM | 7.38 µM | 16.9 µM | 6.53 µM | 26.4 µM | 12.6 µM | > 50 µM | 2.1 µM | 17.4 µM | 1.71 µM | 6.07 µM | – | –
Nc1ccn(Cc2ccc(C34CC5CC(CC(C5)C3)C4)c(O)c2)c(=O)n1 | 54.5 µM | > 100 µM | 89.1 µM | > 100 µM | – | – | > 100 µM | > 100 µM | > 100 µM | > 100 µM | 82.4 µM | > 100 µM | 93 µM | > 100 µM
C[C@H](Nc1ncnc2nc[nH]c12)c1cc2cccc(Cl)c2c(=O)n1-c1ccccc1 | 82.1 µM | > 100 µM | 17.7 µM | > 100 µM | 1.58 µM | 7.51 µM | > 77.4 µM | > 100 µM | 1.58 µM | > 43.5 µM | 25.8 µM | > 100 µM | – | –
ClCCn1c(CCl)nc2ccc(Cl)cc21 | 0.252 µM | 0.832 µM | 2.33 µM | 7.19 µM | 0.213 µM | 0.476 µM | 0.193 µM | 0.442 µM | 1.86 µM | 4.19 µM | 0.176 µM | 0.329 µM | – | –
COC1(C(=O)N[C@@H](C)c2ccc(-n3cc(F)cn3)nc2)CCC(c2nc(C)cc(Nc3cc(C)[nH]n3)n2)CC1 (stereo not given in full) | 2.6 µM | 19.9 µM | 2.29 µM | 51.4 µM | – | – | 0.222 µM | 11.7 µM | 2.17 µM | 21.7 µM | 3.18 µM | 10.4 µM | 0.688 µM | 2.94 µM
CN1CCN(CCc2cccc(C(=O)c3cnn(-c4ccc(F)cc4)c3N)c2)CC1 | > 25 µM | > 25 µM | > 25 µM | > 25 µM | > 25 µM | > 25 µM | > 25 µM | > 25 µM | > 25 µM | > 25 µM | > 25 µM | > 25 µM | – | –
COc1ccc(C(=O)/C=C/c2ccc(/C=C/c3cc(OC)c(OC)c(OC)c3)cc2)cc1 | 5.39 µM | 65.9 µM | 21.1 µM | > 100 µM | 9.24 µM | 76.4 µM | 3.57 µM | 22.8 µM | 6.19 µM | > 100 µM | 3.39 µM | 19.2 µM | – | –
CC1SC(c2c(Cl)cccc2Cl)N(NC(=O)c2[nH]c3ccc(F)cc3c2-c2ccccc2)C1=O (stereo not given) | 2.73 µM | 10.1 µM | 2.17 µM | 5.82 µM | 2.37 µM | 7.9 µM | – | – | 2.61 µM | 14 µM | 2.72 µM | 11.9 µM | 2.33 µM | 10.8 µM
CC1(C)SC2C(NC(=O)C(N)c3ccccc3)C(=O)N2C1C(=O)O (stereo not given) | – | > 100 µM | – | > 100 µM | – | > 100 µM | – | – | – | > 100 µM | – | > 100 µM | – | > 100 µM
CCN(Cc1ccc(F)c(F)c1)c1ccc(CO)c(Cl)c1 | 6.7 µM | 27.1 µM | 12.6 µM | 27.8 µM | 0.098 µM | 0.477 µM | – | – | 0.0977 µM | 0.667 µM | 5.85 µM | 20.3 µM | – | –
Nc1c(C(=O)Nc2cccc([N+](=O)[O-])c2)sc2nc3c(cc12)C(O)CCC3 (stereo not given) | > 100 µM | > 100 µM | 18.7 µM | > 100 µM | 26 µM | > 100 µM | 29.6 µM | > 100 µM | 6.59 µM | > 100 µM | 3.59 µM | > 100 µM | – | –
CCCC[C@H](NC(=O)[C@H]1CCCN1C)C(=O)N(C)[C@H](C[C@@H](OC(C)=O)c1nc(C(=O)N[C@@H](Cc2ccccc2)C[C@H](C)C(=O)OCC)cs1)C(C)C | 0.0594 µM | > 33.3 µM | 0.01 µM | > 33.3 µM | 0.0157 µM | > 33.3 µM | 0.531 µM | 16.4 µM | – | – | < 0.00333 µM | 0.063 µM | 0.0591 µM | > 33.3 µM
COC(=O)[C@H](Cc1cn(C)cn1)NC(=O)[C@H](Cc1c[nH]c2ccccc12)NC(=O)Nc1cc(C(F)(F)F)cc(C(F)(F)F)c1 | > 10 µM | > 10 µM | > 10 µM | > 10 µM | > 10 µM | > 10 µM | > 10 µM | > 10 µM | > 10 µM | > 10 µM | > 10 µM | > 10 µM | – | –
